Data reported in BindingDB's records for doi:10.1021/acs.jmedchem.6b01247 (University of Chinese Academy of Sciences, 2016).

What was measured:
[1] = Inhibition of Smo in mouse Shh Light2 cells assessed as inhibition of SAG-induced Hh pathway activity by measuring SAG-EC50 at 50 nM measured after 36 hrs by Gli-luciferase reporter gene assay (Rvb = 2.93 nM)
[2] = Inhibition of Smo in mouse Shh Light2 cells assessed as inhibition of SAG-induced Hh pathway activity by measuring SAG-EC50 at 100 nM measured after 36 hrs by Gli-luciferase reporter gene assay (Rvb = 2.93 nM)
[3] = Inhibition of Smo in mouse Shh Light2 cells assessed as inhibition of SAG-induced Hh pathway activity by measuring SAG-EC50 at 500 nM measured after 36 hrs by Gli-luciferase reporter gene assay (Rvb = 2.93 nM)

EC50 [1]: 24 nM
EC50 [2]: 47 nM
EC50 [3]: 137 nM
Structure (SMILES): Cc1ccc2c(n1)[C@H]([C@@H](C)C(=O)Nc1ccc(Cl)c(-c3nc4ccccc4n3C)c1)CC[C@H]2C
